ChEMBL document CHEMBL1122409, “Estrogen receptor binding and estrogenic/antiestrogenic effects of two new metabolites of nitromiphene, 2-[p-[2-nitro-1-(4-methoxyphenyl)-2-phenylvinyl]phenoxy]-N-ethylpyrrolidine” (J Med Chem, 1983)
Activity calls are given as the source filed them. The calls are words filed in the database; no cut-off is given here.

Experiments:
[1] = molecular target: T1, Estrogen receptor (Rattus norvegicus) (UniProt P06211+Q62986); test: Displacement of [3H]estradiol from rat estrogen receptor; modest estrogenic activity; format: protein assay
[2] = molecular target: T1, Estrogen receptor (Rattus norvegicus); test: Antagonistic effect on estradiol benzoate induced uterine weight gain in immature rats at 1E-6M; format: functional; design: scale not given: the % may be the effect or the level left
[3] = molecular target: T1, Estrogen receptor (Rattus norvegicus); test: Displacement of [3H]estradiol from rat estrogen receptor; inactive; format: protein assay
[4] = molecular target: T1, Estrogen receptor (Rattus norvegicus); test: Antagonistic effect against estradiol benzoate induced uterine weight gain in immature rats at 1E-6M; increased estrogenic activity; format: functional; design: scale not given: the % may be the effect or the level left
[5] = molecular target: T1, Estrogen receptor (Rattus norvegicus); test: Displacement of [3H]estradiol from rat estrogen receptor; increased estrogenic activity; format: protein assay

`COc1ccc(/C(=C(/c2ccccc2)[N+](=O)[O-])c2ccc(OCCN3CCCC3)cc2)cc1` was tested, and the Activity [1] was “Weak activity” and the Activity [2] was 11%.
With `COc1ccc(C(C(=O)c2ccccc2)c2ccc(OCCN3CCCC3)cc2)cc1` (stereo not given) the Activity [3] was “inactive”.
For `COc1ccc(/C(=C(/c2ccccc2)[N+](=O)[O-])c2ccc(OCCN3CCCC3=O)cc2)cc1`, the Activity [4] was 43% and the Activity [5] was “Active”.
